In publication PMC4836696 (PLoS ONE, 2016):
Entries after “also recorded” stand apart in the source; their conditions may differ.

Columns and labels:
[1] = test system: subjects with T2D taking metformin; assay: Clinical study Part C: pharmacodynamics (weight, glucose, HbA1c); type: in vivo, human; details: Part C: usual metformin alone, mean ± SE
Text: In all three Parts, to reduce the risk of gastrointestinal adverse events subjects started by taking 15 g of GSK457 daily, in 2 divided doses, and were up-titrated to 30g daily (Day 4) and then to a maximum dose of 40 g daily at Day 7. Subjects unable to tolerate doses of 30 g or 40 g were permitted to reduce their dose to tolerated levels, with a minimum tolerated dose of 15 g required to remain in the study. A unit dose of 5 g of GSK457 consisted of three capsules of oleic acid and a separate sachet of powder for each of the three powder compounds. […] Subjects monitored their capillary blood glucose levels twice a day using a wireless-enabled glucometer and daily weights were monitored using a wireless enabled weighing instrument (see S3 Materials and Methods for more information). […] Plasma was stored at -70°C until analyzed. Samples for clinical chemistry and hematology were measured by the local certified laboratory. Plasma samples were analyzed for glucose, insulin and leptin by BioAgilytix Labs (Durham, NC, USA). Glucose was measured using a Glucose 2300 STAT Plus Glucose Analyzer with the glucose/lactate standard, catalog number 2747 (Yellow Springs Instrument Co, OH, USA). […] An estimation approach was used where point estimates for treatment differences and corresponding confidence intervals were determined. […]

[2] = Clinical study Part C: plasma metformin pharmacokinetics; type: in vivo, human; details: Part C: metformin taken 1 hour before GSK457; comparative plot, no statistics
Method: All samples were shipped frozen on dry ice and stored at approximately -20 °C until analysed. […] The eluate was then further diluted with 1.00 mL of 2:98 formic acid / acetonitrile vol/vol, prior to being analyzed by HPLC with MS/MS detection.

patients = details: cited from earlier work
[3] = Clinical study Part A: plasma metformin pharmacokinetics; details: for metformin Cmax / metformin AUC(0−10): geometric mean (CV%); for metformin Tmax: median (range)
[4] = protocol risk table; cited from earlier work
DIO C57BL/6NTac mice = assay: Chronic 28-day weight loss study in DIO mice; type: in vivo, mouse
[5] = test system: subjects with T2D taking liraglutide; assay: Clinical study Part B: safety and tolerability; type: in vivo, human
Text: A unit dose of 5 g of GSK457 consisted of three capsules of oleic acid and a separate sachet of powder for each of the three powder compounds. The powders were mixed by the subject into 12 oz of flavored (Mio™ pomegranate/berry flavoring) water in a shaker bottle and consumed just prior to breakfast and dinner. The capsules could be taken with this drink or separately with water. The matching placebo consisted of starch and microcrystalline cellulose in identical sachets and capsules.

[6] = Clinical study Part B: plasma liraglutide pharmacokinetics
[7] = test system: subjects with T2D taking liraglutide; assay: Clinical study Part B: pharmacodynamics (weight, glucose, HbA1c); type: in vivo, human; details: Part B: liraglutide alone titrated to 1.8 mg/day, mean ± SD
Text: In all three Parts, to reduce the risk of gastrointestinal adverse events subjects started by taking 15 g of GSK457 daily, in 2 divided doses, and were up−titrated to 30g daily (Day 4) and then to a maximum dose of 40 g daily at Day 7. Subjects unable to tolerate doses of 30 g or 40 g were permitted to reduce their dose to tolerated levels, with a minimum tolerated dose of 15 g required to remain in the study. A unit dose of 5 g of GSK457 consisted of three capsules of oleic acid and a separate sachet of powder for each of the three powder compounds. […]
In Parts B and C, there were additional clinic visits on Days 7, 14, and 28 for safety evaluations, potential modification of dose (Days 7 and 14), and dispensing of study medications. Subjects monitored their capillary blood glucose levels twice a day using a wireless-enabled glucometer and daily weights were monitored using a wireless enabled weighing instrument (see S3 Materials and Methods for more information). […]
Venous blood samples were collected for PD and PK analysis in K^+ EDTA tubes and rapidly placed on ice until centrifuged at 4°C for 10 minutes. Plasma was stored at -70°C until analyzed. Samples for clinical chemistry and hematology were measured by the local certified laboratory. Plasma samples were analyzed for glucose, insulin and leptin by BioAgilytix Labs (Durham, NC, USA). […]

[8] = subjects later randomized to GSK457
[9] = subjects later randomized to placebo
[10] = overdose, ref GLUCOPHAGE (Metformin) Package Insert
[11] = Part A healthy subjects, co-administration with GSK457
[12] = Part A, single 500 mg IR metformin, GSK457 group, Day 1 (metformin alone), n=11
[13] = Part A, single 500 mg IR metformin, GSK457 group, Day 42 (with GSK457), n=10
[14] = Part A, single 500 mg IR metformin, Placebo group, Day 1, n=4
[15] = Part A, single 500 mg IR metformin, Placebo group, Day 42, n=4
[16] = Part B, GSK457 group, Day 42, median (range), n=11
[17] = Part B, with GSK457, data from 1 outlier excluded

For CN(C)C(=N)N=C(N)N [metformin], the “change in mean body weight during the 4-week metformin Stabilization phase” value [1, 8] was -1.62 kg, the “change in mean body weight during the 4-week metformin Stabilization phase” value [1, 9] was -1.17 kg and the “effect on metformin AUC(0−10 h)” value [2] was “slight decrease”. For the same molecule, the “effect on metformin Cmax” value [2] was “no apparent effect”, the “patients with decrease to subnormal serum vitamin B12 levels” value (patients; human, in vivo) was “approximately 7%” and the “hypoglycemia in metformin overdose cases” value (patients; [10]) was “approximately 10 % of cases”. The “lactic acidosis in metformin overdose cases” value (patients; [10]) was “approximately 32%”, the “reduction of metformin systemic exposure” value ([3]; Part A healthy subjects, by GSK457) was ~ 30% and the “decrease of metformin AUC(0−10 h)” value [3, 11] was 32%. For the same molecule, the “decrease of metformin Cmax” value [3, 11] was 34%, the “metformin Cmax” value ([3]; Part A healthy subjects, single 500 mg IR metformin before breakfast, Placebo group, Day 1, plasma, HPLC-MS/MS, n=4) was 682 (19.0) ng/mL and the “metformin AUC(0−10)” value [3, 12] was 3403 (26.4) ng.h/mL. For the same molecule, the “metformin Tmax” value [3, 12] was 2.00 (1.00−4.00) h, the “metformin Cmax” value ([3]; Part A, single 500 mg IR metformin, GSK457 group, Day 1 (metformin alone, GSK457 started at dinner), n=11) was 576 (24.4) ng/mL and the “metformin Cmax” value ([3]; Part A, single 500 mg IR metformin, GSK457 group, Day 42 (taken together with GSK457 after 6 weeks), n=10) was 374 (31.2) ng/mL. The “metformin AUC(0−10)” value [3, 13] was 2232 (38.6) ng.h/mL, the “metformin Tmax” value [3, 13] was 2.00 (2.00−5.50) h and the “metformin AUC(0−10)” value [3, 14] was 4347 (19.1) ng.h/mL. For the same molecule, the “metformin Tmax” value [3, 14] was 3.01 (2.00−4.03) h, the “metformin AUC(0−10)” value [3, 15] was 5082 (21.1) ng.h/mL and the “metformin Cmax” value [3, 15] was 860 (18.8) ng/mL. For the same molecule, the “metformin Tmax” value [3, 15] was 4.00 (2.00−4.03) h and the “fraction of a dose that appears in the feces” value [4] was 20-30%.
With CCCCCCCC/C=C\CCCCCCCC(=O)O [oleic acid] the “effect on endocrine hormones” value (DIO C57BL/6NTac mice; agents dosed individually) was “little effect”, the “serum chemistry, effect of single agents” value (DIO C57BL/6NTac mice; single GRAS agent in chow) was “only a small beneficial effect” and the “serum glucose vs. DIO vehicle” value (DIO C57BL/6NTac mice; single agent in chow, p < 0.05) was “lowered glucose”.
In the case of CCCCCCCCCCCCCCCC(=O)N[C@@H](CCC(=O)NCCCC[C@H](NC(=O)[C@H](C)NC(=O)[C@H](C)NC(=O)[C@H](CCC(N)=O)NC(=O)CNC(=O)[C@H](CCC(=O)O)NC(=O)[C@H](CC(C)C)NC(=O)[C@H](Cc1ccc(O)cc1)NC(=O)[C@H](CO)NC(=O)[C@H](CO)NC(=O)[C@@H](NC(=O)[C@H](CC(=O)O)NC(=O)[C@H](CO)NC(=O)[C@@H](NC(=O)[C@H](Cc1ccccc1)NC(=O)[C@@H](NC(=O)CNC(=O)[C@H](CCC(=O)O)NC(=O)[C@H](C)NC(=O)[C@@H](N)Cc1cnc[nH]1)[C@@H](C)O)[C@@H](C)O)C(C)C)C(=O)N[C@@H](CCC(=O)O)C(=O)N[C@@H](Cc1ccccc1)C(=O)N[C@H](C(=O)N[C@@H](C)C(=O)N[C@@H](Cc1c[nH]c2ccccc12)C(=O)N[C@@H](CC(C)C)C(=O)N[C@H](C(=O)N[C@@H](CCCNC(=N)N)C(=O)NCC(=O)N[C@@H](CCCNC(=N)N)C(=O)NCC(=O)O)C(C)C)[C@@H](C)CC)C(=O)O [liraglutide], the “most common drug-related adverse events during the Stabilization period” value ([5]; Part B: liraglutide alone, 12 weeks, titrated to 1.8 mg/day) was “nausea, diarrhea, decreased appetite, and headache”, the circulating lipase/amylase concentrations ([5]; Part B: while subjects were on liraglutide, no symptoms or signs of pancreatitis, no clear differentiation GSK457 vs placebo) was “Asymptomatic elevations” and the “effect of co-administration with GSK457 on liraglutide plasma exposures” value ([6]; Part B T2D patients, all data) was “did not affect liraglutide plasma exposures; also recorded: no effect”. The “liraglutide AUC(0−t)” value ([6]; Part B, GSK457 group, Day 42 (with GSK457), geometric mean (CV%), n=11) was 1266 (79.4) ng.h/mL, the “liraglutide Tlast” value [6, 16] was 24.02 (23.8−24.3) h and the “liraglutide Tmax” value [6, 16] was 9.98 (0.8−23.8) h. For the same molecule, the “liraglutide Tlast” value ([6]; Part B, GSK457 group, Day -1, median (range), n=12) was 23.88 (23.0−25.9) h, the “liraglutide Tlast” value ([6]; Part B, Placebo group, Day 42, median (range), n=5) was 23.80 (23.8−24.1) h and the “increase of liraglutide AUC(0−t)” value [6, 17] was 28%. For the same molecule, the “increase of liraglutide Cmax” value [6, 17] was 22%, the “change in mean body weight during the 12-week liraglutide Stabilization phase” value [7, 8] was -1.29 kg and the “change in mean body weight during the 12-week liraglutide Stabilization phase” value [7, 9] was -2.55 kg.
